Reference: patent US20170368134A1, “PROTEASOME INHIBITORS FOR TREATING A DISORDER RELATED TO AN ACCUMULATION OF NON-DEGRADED ABNORMAL PROTEIN OR A CANCER” (UNIVERSITÉ D'AIX-MARSEILLE, priority 2015, published 2017)
Peptide text beside a SMILES is read from it. * marks the point of attachment. Cbz = O=C(OCc1ccccc1)*

Experiments:
Assay type in all cases: cell-based, human
progerin [1] = assay: Immunofluorescence of subcellular progerin localization; settings: HGPS cell lines, 48 h MG132 exposure
Protocol: Cells collected by centrifugation were spread onto polylysine-coated slides by centrifugation (300 rpm for 5 minutes) with a cytospin (Shandon). Cells were then fixed at room temperature for 10 minutes in 2% (w/v) paraformaldehyde in PBS pH 7.2. Slides were stored at −80° C. prior to use. Cells were permeabilized using 100 μL permeabilization buffer (0.5% Triton X-100, 50 mM NaCl, 300 mM sucrose, 20 mM HEPES pH 7.5, 3 mM MgCl2) for 3 minutes at RT. Non-specific antibody binding was blocked with 3% Bovine Serum Albumin in PBS (w/v) (PBS-BSA) for 30 minutes. The permeabilized cells were incubated with the primary antibodies for 3 h at 37° C. After washing, the cells were then incubated with secondary antibodies (A11001, A11058, Life Technologies; 1/400) for 20 minutes at 37° C. Nuclei were stained with DAPI (50 ng/ml) diluted in Vectashield (Abcys) for 10 minutes at RT. Samples were fixed in 4% paraformaldehyde for 5 min. […]
It has been reported that the MG132 can lead to PML-NBs component proteins being translocated into the nucleolus. […] Therefore, nucleolus might function as an alternative sequestration site that immobilizes and temporarily stores accumulated progerin when proteasome-dependent degradation is blocked, as the inventors detected PML and LC3B cytosolic colocalization upon 24 h MG132 treatment (data not shown). […]

lamin A mRNA = assay: qRT-PCR of lamin A transcripts in HGPS cells; settings: 10 μM MG132 time-course
Protocol: (§1) Total RNA was isolated using the RNeasy plus extraction kit (Qiagen, Valencia, Calif.). 1 μg of RNA was reverse transcribed using the High Capacity cDNA Reverse Transcription Kit (Applied Biosystems). Real time PCR amplification was carried out with the TaqMan® Gene Expression Master Mix (Applied Biosystems) on a LightCycler 480 (Roche, Germany) using pre-designed primers for GAPDH (Hs00266705_g1), Progerin (F: […] (SEQ ID NO:3) R: […] (SEQ ID NO:4) and probe: […] (SEQ ID NO:5)), Lamin A (F: […] (SEQ ID NO:6) R: […] (SEQ ID NO:7) and probe: […] (SEQ ID NO:8)) and lamin C (F: […] (SEQ ID NO:9) R: […] (SEQ ID NO:10) and probe: […] (SEQ ID NO:11)) (Applied Biosystems) using the program: UNG incubation at 50° C. for 2 minutes, initial denaturation at 95° C. for 10 minutes, 40 cycles of amplification: denaturation at 95° C. for 15 seconds and annealing at 60° C. for 1 minute. All PCR reactions were performed in triplicate. Threshold cycle (Ct) values were used to calculate relative mRNA expression by the 2-ΔΔ^T relative quantification method with normalization to GAPDH expression.

progerin [2] = assay: Western blot of progerin levels in HGPS fibroblasts; settings: for reduction in progerin amounts: normalized with tubulin, vs DMSO-treated HGPS cells
Protocol: HGPS fibroblasts (AG01972: person, AG11498: person) were obtained from the Coriell Cell Repository. Cells were cultured in Dulbecco's modified Eagle's medium (Life Technologies) supplemented with 15% fetal bovine serum (Life Technologies), 2 mM L-glutamine (Life Technologies) and 1× penicillin-streptomycin (Life Technologies) at 37° C. in a humidified atmosphere containing 5% CO2. […]
Total fibroblast proteins were extracted in 200 μL of NP40 Cell Lysis buffer (Invitrogen, Carlsbad, Calif.) containing Protease and Phosphatase Inhibitor Cocktail (Thermo Scientific). Alternatively, cells were lysed with urea (8 M urea, 5 mM dithiothreitol, 150 mM NaCl, 50 mM Tris-Cl pH 7.5, protease and phosphatase Inhibitor Cocktail (Thermo Scientific)). Cells were sonicated twice (30 sec each), incubated at 4° C. for 30 minutes and then centrifuged at 10,000 g for 10 minutes. Protein concentration was evaluated with the bicinchoninic acid technique (Pierce BCA Protein Assay Kit), absorbance at 562 nm is measured using nanodrop 1000 (Thermo Fisher Scientific Inc.) Equal amounts of proteins (40 μg) were loaded onto 10% Tis-Glycine gel (Criterion™ XT precast gel) using XT Tricine running Buffer (Biorad, USA). After electrophoresis, gels were electro transferred onto nitrocellulose membranes or Immobilon-FL polyvinylidene fluoride membranes (Millipore), blocked in Odyssey Blocking Buffer diluted 1:1 in PBS for 1 hour at room temperature, and incubated overnight at 4° C. or 2 hours at room temperature with various primary antibodies. Blots were washed with TBS-T buffer [20 mM tris (pH 7.4), 150 mM NaCl, and 0.05% Tween 20] and incubated with 1:10,000 IR-Dye 800-conjugated secondary donkey anti-goat or IR-Dye 700-conjugated secondary anti-mouse antibodies (LI-COR Biosciences) in Odyssey blocking buffer (LI-COR Biosciences). For IR-Dye 800 and IR-Dye 700 detection, an Odyssey Infrared Imaging System (LI-COR Biosciences) was used. GAPDH, α-tubulin or β-actin were used as a total cellular protein loading control.

progerin mRNA = assay: qRT-PCR of progerin transcripts in HGPS fibroblasts; settings: 10 μM MG132, time dependent, relative to DMSO
Protocol: as §1

CC(C)C[C@@H](C=O)NC(=O)[C@H](CC(C)C)NC(=O)[C@H](CC(C)C)NC(=O)OCc1ccccc1 [MG132, Z-Leu-Leu-Leu-al] (Cbz-Leu-Leu-Leu-aldehyde)
subcellular progerin localization (progerin [1]): progerin accumulates into autophagic vacuoles
lamin A transcript levels (lamin A mRNA): significant decrease of lamin A transcripts
reduction in progerin amounts (progerin [2]; 10 μM MG132, 6 h): 31%
reduction in progerin amounts (progerin [2]; 10 μM MG132, 24 h): 58%
reduction in progerin amounts (progerin [2]; 10 μM MG132, 48 h): 65%
progerin level at longer treatment (progerin [2]; cells solubilized with urea, 72 h of MG132 treatment): progerin reappears after 72 h of treatment
progerin mRNA expression (progerin mRNA): almost extinguished progerin mRNA expression
